# Laboratory results reported in patent publication US11485737B2, “Diaryl substituted 5,5-fused ring compounds as C5aR inhibitors” (CHEMOCENTRYX, INC., priority 2017, dated 2022).
# pIC50: −log10 of the molar value.
# Molecular target: T1, C5aR (Homo sapiens, UniProt P21730)
# T1 construct: U937 cells are a monocytic cell line which express C5aR; host or cells: U937 cells (cAMP-treated overnight)
# T1 sequence (P21730 1-350): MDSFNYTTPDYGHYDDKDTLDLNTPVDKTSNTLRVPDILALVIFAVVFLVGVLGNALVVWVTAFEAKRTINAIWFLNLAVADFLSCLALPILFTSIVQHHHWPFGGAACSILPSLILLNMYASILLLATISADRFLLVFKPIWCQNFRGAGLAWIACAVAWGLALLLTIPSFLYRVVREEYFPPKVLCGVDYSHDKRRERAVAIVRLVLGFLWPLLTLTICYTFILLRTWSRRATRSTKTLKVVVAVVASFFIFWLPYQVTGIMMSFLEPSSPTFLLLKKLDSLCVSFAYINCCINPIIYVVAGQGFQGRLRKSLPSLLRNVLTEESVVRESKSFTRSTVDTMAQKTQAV
# Assay: Chemotaxis assay using U937 cells (C5a-induced migration)
# Type: cell-based
# Conditions: chemotaxis (migration) of U937 cells towards C5a; read-out: Mig IC50
# Method: U937 cells are a monocytic cell line which express C5aR, and are available from ATCC (VA). These cells were cultured as a suspension in RPMI-1640 medium supplemented with 2 mM L-glutamine, 1.5 g/L sodium bicarbonate, 4.5 g/L glucose, 10 mM HEPES, 1 mM sodium pyruvate, and 10% FBS. Cells were grown under 5% CO2/95% air, 100% humidity at 37° C. and subcultured twice weekly at 1:6 (cells were cultured at a density range of 1×10^5 to 2×10^6 cells/mL) and harvested at 1×10^6 cells/mL. Prior to assay, cells are treated overnight with 0.5 mM of cyclic AMP (Sigma, OH) and washed once prior to use. cAMP treated U937 cells can be used in C5aR ligand binding and functional assays.
# Optionally, compounds may be further assayed for their ability to inhibit chemotaxis in cells. Chemotaxis assays are performed using 5 μm pore polycarbonate, polyvinylpyrrolidone-coated filters in 96-well chemotaxis chambers (Neuroprobe; Gaithersburg, Md.) using chemotaxis buffer (Hank's balanced salt solution (HBSS) and 1% FBS). C5aR ligands (i.e., C5a, R&D Systems; Minneapolis, Minn.) are use to evaluate compound mediated inhibition of C5aR mediated migration. Other chemokines (i.e., SDF-1α; R&D Systems; Minneapolis, Minn.) are used as specificity controls. The lower chamber is loaded with 29 μl of chemokine (i.e., 0.03 nM C5a) and varying amounts of compound; the top chamber contains 100,000 U937 or neutrophil cells in 20 μl. The chambers are incubated 1.5 hours at 37° C., and the number of cells in the lower chamber quantified either by direct cell counts in five high powered fields per well or by the CyQuant assay (Molecular Probes), a fluorescent dye method that measures nucleic acid content and microscopic observation.
# The compounds in Table 1, below, were prepared using the methods described above. Characterization data is provided for each compound listed. Activity is provided as follows for the chemotaxis assay using U937 cells as described herein (Example 7): +, 500 nM<IC50; ++, 50 nM<IC50<500 nM; +++, 5 nM<IC50<50 nM; and ++++, IC50<5 nM.
row,pIC50,Compound
1,6.30 to 7.30,Cc1cccc(C)c1-n1nc2c(c1-c1ccc(N)cc1)CN(c1ccccc1C(C)C)C2 [Compound 1.046]
2,< 6.30,Cc1cccc(C)c1-n1nc2c(c1-c1ccc(C(N)=O)cc1)CN(C(=O)NC(C)(C)C)C2 [Compound 1.033]
3,6.30 to 7.30,Cc1ccc(C(C)(C)C)cc1N1Cc2nn(-c3c(C)cccc3C)c(-c3ccc(NC(N)=O)cc3)c2C1 [Compound 1.049]
4,< 6.30,Cc1cccc(C)c1-n1nc2c(c1-c1ccc(C(N)=O)cc1)CN(C(=O)OC(C)(C)C)C2 [Compound 1.038]
5,< 6.30,Cc1ccc(N2Cc3nn(-c4c(C)cccc4C)c(-c4ccc(C(N)=O)cc4)c3C2)cc1C(F)(F)F [Compound 1.039]
6,6.30 to 7.30,Cc1cccc(C)c1-n1nc2c(c1-c1ccc(NC(N)=O)cc1)CN(c1ccccc1C(C)C)C2 [Compound 1.045]
7,7.30 to 8.30,COc1cccc(C)c1-n1nc2c(c1-c1ccc(N)cc1)CN(c1cc(C(C)(C)C)ccc1C)C2 [Compound 1.055]
8,> 8.30,Cc1ccc(C(C)(C)C)cc1N1Cc2nn(-c3c(C)cccc3OCC(C)C)c(-c3ccc(C(N)=O)cc3)c2C1 [Compound 1.041]
9,7.30 to 8.30,Cc1ccc(C(C)(C)C)cc1N1Cc2nn(-c3c(C)cccc3C)c(-c3ccc(C(N)=O)cc3)c2C1=O [Compound 1.031]
10,> 8.30,Cc1ccc(C(C)(C)C)cc1N1Cc2nn(-c3c(C)cccc3C)c(-c3ccc(N)cc3)c2C1 [Compound 1.051]
11,6.30 to 7.30,Cc1cc(C(N)=O)ccc1-c1c2c(nn1-c1c(C)cccc1C)CN(c1cc(C(C)(C)C)ccc1C)C2 [Compound 1.040]
12,6.30 to 7.30,Cc1cccc(C)c1-n1nc2c(c1-c1ccc(C(N)=O)cc1)CN(c1ccc(F)cc1C(C)C)C2 [Compound 1.034]
13,> 8.30,Cc1ccc(C(C)(C)C)cc1N1Cc2nn(-c3c(C)cccc3C)c(-c3ccc(C(N)=O)cc3)c2C1 [Compound 1.047]
14,< 6.30,COc1cccc(C)c1-n1nc2c(c1-c1ccc(NC(N)=O)cc1)CN(c1cc(C(C)(C)C)ccc1C)C2 [Compound 1.052]
15,7.30 to 8.30,Cc1ccc(C(C)(C)C)cc1N1Cc2c(nn(-c3c(C)cccc3C)c2-c2ccc(C(N)=O)cc2)C1=O [Compound 1.030]
16,< 6.30,Cc1cccc(C)c1-n1nc2c(c1-c1ccc(C(N)=O)cc1)CN(c1cc(C(C)(C)C)ccn1)C2 [Compound 1.028]
17,< 6.30,Cc1ccc(C(C)(C)C)cc1N1Cc2nn(-c3c(C)cccc3C)c(-c3ccc(C(=O)NC4CCCC4)cc3)c2C1 [Compound 1.042]
18,< 6.30,COc1cccc(C)c1-n1nc2c(c1-c1ccc(NC(N)=O)cc1)CN(C(=O)NC(C)(C)C)C2 [Compound 1.032]
19,7.30 to 8.30,"Cc1cc(F)c(C(C)C)cc1N1Cc2nn(-c3c(C)cccc3C)c(-c3ccc(C(N)=O)cc3)c2C1 [Compound 1.035, 4-(2-(2,6-dimethylphenyl)-5-(4-fluoro-5-isopropyl-2-methylphenyl)-2,4,5,6-tetrahydropyrrolo[3,4-c]pyrazol-3-yl)benzamide]"
20,6.30 to 7.30,COc1cccc(C)c1-n1nc2c(c1-c1ccc(NC(N)=O)cc1)CN(c1ccccc1C(C)C)C2 [Compound 1.044]
21,6.30 to 7.30,Cc1ccc(C(C)(C)C)cc1N1Cc2nn(-c3c(C)cccc3C)c(-c3ccc(C(C)(C)O)cc3)c2C1 [Compound 1.048]
22,< 6.30,CNc1ccc(-c2c3c(nn2-c2c(C)cccc2C)CN(c2cc(C(C)(C)C)ccc2C)C3)cc1 [Compound 1.050]
23,7.30 to 8.30,CCOc1cccc(C)c1-n1nc2c(c1-c1ccc(N)cc1)CN(c1cc(C(C)(C)C)ccc1C)C2 [Compound 1.054]

# Further lines, the molecule ahead of its results:
row,Compound,pIC50
1,CCc1cccc(CC)c1-n1nc2c(c1-c1cc(F)c(NC(N)=O)cc1C)CN(Cc1ccc(C(F)(F)F)cc1C(F)(F)F)C2(C)C [Compound 1.010],> 8.30
2,CCc1cccc(CC)c1-n1nc2c(c1-c1cc(F)c(NC(N)=O)cc1F)CN(Cc1cc(C(F)(F)F)ccc1C(F)(F)F)C2(C)C [Compound 1.017],> 8.30
3,CCc1cccc(CC)c1-n1nc2c(c1-c1cc(F)c(NC(N)=O)cc1F)CN(C(=O)C(C)CC)C2(C)C (stereo not shown) [Compound 1.013],> 8.30
4,CCc1cccc(CC)c1-n1nc2c(c1-c1cc(F)c(NC(N)=O)cc1C)CN(CC1(C)COC1)C2(C)C [Compound 1.008],7.30 to 8.30
5,CCc1cccc(CC)c1-n1nc2c(c1-c1cc(OC)c(NC(N)=O)cc1F)CN(Cc1ccc(C(F)(F)F)cc1C(F)(F)F)C2(C)C [Compound 1.002],> 8.30
6,"CCc1cccc(CC)c1-n1nc2c(c1-c1cc(Cl)c(NC(N)=O)cc1F)CN(Cc1ccc(C(F)(F)F)cc1C(F)(F)F)C2(C)C [Compound 1.001, 1-(4-(5-(2,4-bis(trifluoromethyl)benzyl)-2-(2,6-diethylphenyl)-6,6-dimethyl-2,4,5,6-tetrahydropyrrolo[3,4-c]pyrazol-3-yl)-2-chloro-5-fluorophenyl)urea]",> 8.30
7,CCc1cccc(CC)c1-n1nc2c(c1-c1cc(F)c(NC(N)=O)cc1F)CN(Cc1cc(Cl)ccc1Cl)C2(C)C [Compound 1.011],> 8.30
8,CCc1cccc(CC)c1-n1nc2c(c1-c1cc(C)c(NC(N)=O)cc1F)CN(Cc1ccc(C(F)(F)F)cc1C(F)(F)F)C2(C)C [Compound 1.003],> 8.30
9,Cc1cc(-c2c3c(nn2-c2c(C)cccc2C)C(=O)N(c2cc(C(C)(C)C)ccc2C)C3)ccc1C(N)=O [Compound 1.024],7.30 to 8.30
10,CCc1cccc(CC)c1-n1nc2c(c1-c1cc(F)c(NC(N)=O)cc1F)CN(CC1CCOCC1)C2(C)C [Compound 1.015],> 8.30
11,CCc1cccc(CC)c1-n1nc2c(c1-c1cc(F)c(NC(N)=O)cc1C)CN(Cc1ccccc1C(F)(F)F)C2(C)C [Compound 1.009],> 8.30
12,Cc1cccc(C)c1-n1nc2c(c1-c1ccc(NC(N)=O)cc1)CN(CC(C)(C)C)C2(C)C [Compound 1.019],6.30 to 7.30
13,"CCc1cccc(CC)c1-n1nc2c(c1-c1cc(F)c(NC(N)=O)cc1F)CN(C(=O)C(C)C)C2(C)C [Compound 1.016, 1-(4-(2-(2,6-diethylphenyl)-5-isobutyryl-6,6-dimethyl-2,4,5,6-tetrahydropyrrolo[3,4-c]pyrazol-3-yl)-2,5-difluorophenyl)urea]",7.30 to 8.30
14,CCc1cccc(CC)c1-n1nc2c(c1-c1ccc(C(N)=O)c(F)c1)CN(Cc1ccc(C(F)(F)F)cc1C(F)(F)F)C2(C)C [Compound 1.005],< 6.30
15,Cc1cccc(C)c1-n1nc2c(c1-c1ccc(C(N)=O)cc1)CN(c1cccc(C(C)(C)C)n1)C2 [Compound 1.027],< 6.30
16,CCc1cccc(CC)c1-n1nc2c(c1-c1cc(F)c(NC(N)=O)cc1F)CN(Cc1ccccc1C(F)(F)F)C2(C)C [Compound 1.014],> 8.30
17,"CCc1cccc(CC)c1-n1nc2c(c1-c1cc(F)c(NC(N)=O)cc1F)CN(CC(C)(C)C(F)(F)F)C2(C)C [Compound 1.004, 1-(4-(2-(2,6-diethylphenyl)-6,6-dimethyl-5-(3,3,3-trifluoro-2,2-dimethylpropyl)-2,4,5,6-tetrahydropyrrolo[3,4-c]pyrazol-3-yl)-2,5-difluorophenyl)urea]",> 8.30
18,Cc1cccc(C)c1-n1nc2c(c1-c1cc(F)c(NC(N)=O)cc1F)CN(Cc1ccccc1C(F)(F)F)C2(C)C [Compound 1.006],> 8.30
19,Cc1ccc(C(C)(C)C)cc1N1Cc2c(nn(-c3c(C)cccc3C)c2-c2ccc(NC(N)=O)cc2)C1=O [Compound 1.021],< 6.30
20,Cc1cc(C(N)=O)ccc1-c1c2c(nn1-c1c(C)cccc1C)C(=O)N(c1cc(C(C)(C)C)ccc1C)C2 [Compound 1.023],6.30 to 7.30
